From patent US7879792B2, “Synthetic peptide inhibitors of thrombin and thrombin activation of protease activated receptors 1 and 4” (The Regents of the University of Michigan, priority 2005, dated 2011) come the findings set out here.

Where a SMILES comes first, the peptide text is derived from it.

In series [1] the test system is normal human lung fibroblasts (NHLF). The series is described as follows: α-thrombin-induced calcium mobilization in normal human lung fibroblasts. Conditions: 2 nM alpha thrombin. It is filed as cell-based. The method, then: The second assay developed to assess peptides from the combinatorial libraries uses inhibition of α-thrombin-induced calcium mobilization in fibroblasts. Normal human lung fibroblasts (NHLF) were purchased from Clonetics, San Diego, Calif., an affiliate of Bio-Wittaker, Walkersville, Md. The cytoplasmic free Ca^2+ concentration ([Ca^2+]i) was measured using the fluorescent Ca^2+ indicator fura-2 (Molecular Probes, Inc., Eugene, Oreg.). Suspension of fibroblasts in Hepes-Tyrode's buffer were loaded with fura-2 by incubation at 37° C. with 2 μM fura-2/acetoxymethyl ester for 45 minutes according to the method of Rasmussen et al., J. Biol. Chem. 268, 14322 (1993). The labeled fibroblasts were separated from excess probe by washing by centrifugation at 1000 rpm (180 xg). Aliquots of the labeled fibroblasts were transferred into a quartz cuvette with a magnetic stirrer, which was then placed in a thermostatically controlled chamber at 37° C. in a fluorescence spectrophotometer (Perkin-Elmer LS50B spectrofluorometer, Chicago, Ill.). Reagents, test peptide, and α-thrombin (0.25-2 nM), were sequentially added directly to the cuvette. The excitation wavelengths varied between 340 and 380 nm. Fluorescence was measured by recording emitted light at 510 nm as reported by Fisher et al., Mol Pharm. 35, 195 (1989). The minimum emission was determined on a solubilized fibroblast sample in the presence of 10 mM EDTA; maximum emission was determined on the same sample with 10 mM Ca^2+ added. The intrafibroblast free Ca^2+ concentration was calculated by the method of Grykiewicz et al., J. Biol. Chem. 260, 3440 (1985). The ratio of the fluorescence readings was calculated as R=340/380 nm and processed according to the equation [Ca^2+]i=KD((R−Rmin)/Rmax−R))(Sf2/Sb2) to determine the intrafibroblast free Ca^2+ concentration. The KD for fura-2 was assumed to be 224 nM. Rmax and Rmin are the maximum and minimum fluorescence ratios measured at the end of the experiment, respectively; Sf2 and Sb2 are the fluorescence values at 380 nm in the absence and presence of saturating [Ca^2+], respectively. The reaction was monitored for 3-5 minutes.

In series [2] the test system is normal human citrated plasma. As to the kind of experiment: activated partial thromboplastin time (APTT). The series is classed as biochemical. The protocol:
The influence of the various peptide formulations used in the present invention on established coagulation-based assays was determined. The activated partial thromboplastin time (APTT) is performed by mixing 0.05 ml normal human citrated plasma with 0.05 ml activated partial thromboplastin reagent purchased from Organon Teknika, Research Triangle Park, NC in the absence or presence of a peptide inhibitor. After incubation for 5 min at 37° C., the mixture is recalcified with 0.05 ml of 30 mM calcium chloride and the time to clot formation is measured in an Amelung KC4A instrument (Sigma Chemical Corp, St. Louis, Mo.) (Hasan et al. Thrombosis and Haemostasis. 82, 1182-1187 (1999)). The prothrombin time (PT) is performed by mixing 0.05 ml normal human citrated plasma with 0.05 ml Simplastin (Organon Teknika, Research Triangle Park, NC) followed by incubation for 3 min at 37° C. in the absence or presence of a peptide inhibitor. At the addition of 0.05 ml of 30 mM calcium chloride, the time to clot formation is measured in an KC4A instrument (Sigma Chemical Corp, St. Louis, Mo.) (Hasan et al. Thrombosis and Haemostasis. 82, 1182-1187 (1999)). The thrombin clotting time (TCT) is performed by adding 0.1 ml normal human citrated plasma in the absence or presence of a peptide inhibitor and 0.05 ml of a α-thrombin solution such that the final concentration of the thrombin in the entire mixture was 1 nM. Upon addition of the thrombin, the time to clot formation is measured in an KC4A instrument (Sigma Chemical Corp, St. Louis, Mo.).

Series [3] can be described thus: stability testing in intestinal homogenate. The series is classed as in vitro ADME. Conditions: rat. The method, then: Stability testing of the various compounds was performed in buffer, intestinal perfusate, and an intestinal homogenate preparation to assess the potential oral availability of these compounds. Initial studies prepared the tissue for stability studies. The buffer used in stability testing is 10 mM MES (pH 6.5) containing 135 mM NaCl, and 5 mM KCl. To collect intestinal perfusate from rats, male Sprague Dawley rats, 8 to 10 weeks old, weighing 250 to 350 g were fasted 15 to 18 hours with water given ad libitum. Anesthesia was administered by intramuscular injection of pentobarbital/ketamine (40 mg/kg and 80 mg/kg, respectively). The rats were placed on a warming pad under a surgical lamp to maintain body temperature and jejunal intestinal segments were exposed through a midline, abdominal incision. Approximately 20 cm segment of the jejunum (2 to 4 cm distal to the ligament of Treitz) was cannulated and the intestinal segments were perfused with 10 mM MES (pH 6.5) containing 135 mM NaCl, and 5 mM KCl at a flow-rate of 0.5 ml/min at 37° C. using a constant infusion pump (Harvard Apparatus, South Natick, Mass.). The collected perfusate was stored at −80° C. until use for ex vivo stability studies. After collection, the perfused intestinal segments were flushed with ice-cold 0.15 M KCl solution and the animal was euthanized and the jejunal intestinal segment detached. The inner intestinal tissue layers are scraped out and homogenized in MES buffer (pH 6.5) in a ratio of 1 part of intestinal tissue to 5 parts buffer. Total protein content of the perfusate and the homogenate were determined using a Biorad protein assay kit. The intestinal homogenate samples were used immediately or rapidly frozen at −80° C. until stability analysis.
The actual stability testing protocol is as follows: A 0.1 ml aliquot of the synthetic peptide solution (1 mg/ml) was added to 0.9 ml of MES buffer, pH 6.5, intestinal perfusate, or intestinal homogenate at 37° C. Samples were mixed by vortexing and 100 microliter aliquots were removed over a 60 to 90 minute period for analysis of breakdown products. The 100 microliter sample aliquots were diluted 10 fold with water and subjected to solid phase extraction using a Waters Oasis HLB column. Briefly, the columns were preconditioned by passing 1 ml of MeOH and 1 ml of water over the column, and 1 ml of sample was added to the column. The column was washed with 5% methanol:95% water solution to remove proteins and salts, then eluted with 1 ml of 100% methanol. The methanol was removed by vacuum, and the sample was reconstituted in mobile phase for LC/MS/MS analysis.
LC/MS/MS analysis was performed on a HP1100 HPLC (Hewlett Packard) interfaced with a Quattro II MS/MS detector (Waters/Micromass). For the HPLC separation, a 10 μL aliquot of sample in a mobile phase consisting of an equal volume mixture of acetonitrile/water containing 0.5% formic acid was injected onto a 150 mm×2.2 mm, 5 μm C8 column (Higgins Analytical Inc) and developed at a flow rate of 0.2 ml/min for 5 minutes. The MS detector was used in single ion recording mode at a cone voltage of 50 Volts.

On to `Cc1ccc(C[C@H](NC(=O)[C@@H](C)NC(=O)[C@@H]2CCCN2C(=O)[C@@H]2C[C@@H]3CCCC[C@@H]3N2C(=O)[C@H](N)CCCNC(=N)N)C(N)=O)cc1` [rOicPaF(p-Me), D-Arg-Oic-Pro-D-Ala-Phe(p-Me)] (HELM PEPTIDE1{[dR].[O=C([C@@H]1C[C@@H]2CCCC[C@@H]2N1[*:1])[*:2]].P.[dA].[Cc1ccc(C[C@H](N[*:1])C(=O)[*:2])cc1].[am]}$$$$V2.0), for which the “alpha thrombin-induced calcium mobilization” value in series [1] (0.00038 mM peptide) is listed as “full recovery”. Besides, the “inhibition of thrombin-induced calcium mobilization” value was found to be 69% in series [1] (0.003 mM peptide) and 97% in series [1] (0.08 mM peptide). For the same compound, the “peptide concentration with significant prolongation (p<0.05) of the APTT” value in series [2] was determined as 1.56 µM.

Turning to `N=C(N)NCCC[C@@H](N)C(=O)N1[C@H](C(=O)N2CCC[C@H]2C(=O)NCC(=O)N[C@@H](Cc2ccccc2)C(N)=O)C[C@@H]2CCCC[C@@H]21` [rOicPGF, D-Arg-Oic-Pro-Gly-Phe, reference compound] (HELM PEPTIDE1{[dR].[O=C([C@@H]1C[C@@H]2CCCC[C@@H]2N1[*:1])[*:2]].P.G.F.[am]}$$$$V2.0), in series [3] (male, Sprague Dawley, intestinal homogenate, pH 6.5, 37° C., read-out: t1/2 (min) Intestinal Homogenate), the half-life at 0.1 mg/ml came to 40.3 min. In addition, the “stability in intestinal homogenate (FIG. 12)” value in series [3] is reported as “less stable”.
